According to patent US10563171B2, “Method for inducing differentiation of pluripotent stem cells into germ cells” (Kyoto University, priority 2015, dated 2020):

Legend:
[1] = tested on: BTAG 585B1-868 hiPSCs; assay: Induction of iMeLCs from hiPSCs having induction capacity into BTAG positive cells (FACS of BTAG(+) cells); format: cell-based, human
Procedure: (§1) Initial mesoderm-like cells (iMeLCs) were induced by seeding hiPSCs maintained in StemFit™ in a 12 well plate coated with human plasma fibronectin (Millipore, FC010) at 1.0-2.0×10^5 cells per well in GK15 medium [GMEM containing 15% KSR, 0.1 mM NEAA, 2 mM L-glutamine, 1 mM sodium pyruvate and 0.1 mM 2-mercaptoethanol (Life Technologies)] containing 50 ng/ml activin A, 3 μM CHIR99021 and 10 μM ROCK inhibitor (Y-27632; Wako Pure Chemical Industries). The hiPSCs were induced by seeding in a low-cell-binding V-bottom 96 wellplate (Thermo, 81100574) at 3.0×10^3 cells per well in GK15 added with 1000 U/ml LlF (Millipore, #LIF1005), 200 ng/ml BMP 4,100 ng/ml SCF (R&D Systems, 455-MC), 50 ng/ml EGF (R&D Systems, 236-EG), and 10 μM ROCK inhibitor. For investigation of conditions and induction of iMeLCs or hPGCLC, PD173074 (StemGent, #04-0008) or LDN193189 (StemGent, #04-0074) was respectively added. Other than the above, WNT3A (R&D Systems, 5036-WN) was used instead of CHIR99021, and BMP2 (R&D Systems, 355-BM), BMP7 (R&D Systems, 354-BP), or BMP8A (R&D Systems, 1073-BP) was used instead of BMP4.
(§2) Floating aggregates containing hPGCLCs were separated by treating with 0.05% Trypsin-EDTA/PBS at 37° C. for 10 min. After washing with PBS containing FBS and 0.1% BSA, the cell suspension was filtered by a cell strainer (BD Biosciences) and centrifuged to remove cell aggregates. The collected cells were suspended in FACS buffer (0.1% BSA in PBS) and analyzed by a flow cytometer (ARIA III; BD Biosciences). For the analysis of hPGCLCs or hiPSCs, the separated cells were stained with APC-conjugated anti-human CD326 (EpCAM), BV421-conjugated anti-human/mouse CD49f, PE-conjugated anti-TRA-1-60, or FITC-conjugated anti-SSEA-4. Furthermore, intracellular staining using Alexa fluor 647-conjugated anti-OCT3/4, Alexa Fluor 647-conjugated anti-NANOG or V450-conjugated anti-SOX2 was performed using BD cytofix/Cytoferm Fixation/Permeabilization kit (BD, 554714) and according to the Manufacturer's instructions.

[2] = tested on: iMeLCs; assay: Induction of BTAG positive cells (hPGCLCs) from iMeLCs in floating aggregates; format: cell-based, human; settings: for role in induction of BTAG positive cells from iMeLCs: combination of BMP4, LIF, SCF and EGF changed, FIG. 11A-D
Procedure: as §1, §2

In the case of `Cc1c[nH]c(-c2cnc(NCCNc3ccc(C#N)cn3)nc2-c2ccc(Cl)cc2Cl)n1` [CHIR, 6-[2-[4-(2,4-Dichlorophenyl)-5-(4-methyl-1H-imidazol-2-yl)pyrimidin-2-ylamino]ethylamino]pyridine-3-carbonitrile, reference compound], the “concentration essential for the induction of iMeLCs having induction capacity into BTAG positive cells” value ([1]; concentration changed during induction of iMeLC from hiPSCs, FIG. 10C) is reported as 3 to 5 µM.

For `c1ccc2c(-c3cnn4cc(-c5ccc(N6CCNCC6)cc5)cnc34)ccnc2c1` [LDN193189, reference compound], the “effect of BMP4 on BTAG positive cell induction in presence of ALK2/3 inhibitor” value ([2]; FIG. 11B) was “blocked”.

In the case of `CCN(CC)CCCCNc1ncc2cc(-c3cc(OC)cc(OC)c3)c(NC(=O)NC(C)(C)C)nc2n1` [PD173074, reference compound], the “number of BTAG-positive cells per cell aggregate” value ([1]; FGFR signaling inhibited during induction of iMeLCs, FIG. 10G, 10H) is reported as “increased”.

With EGF: epithelial cell growth factor the “role in induction of BTAG positive cells from iMeLCs” value (“role in induction” below) [2] was “maintaining rather than inducing”.

For LIF: leukemia inhibitory factor, the “role in induction” value [2] was “maintaining rather than inducing”.

In the case of SCF: stem cell factor, the “role in induction” value [2] is reported as “maintaining rather than inducing”.

For bFGF: basic fibroblast growth factor, the “effect of signaling on iMeLCs induction” value ([1]; added during induction of iMeLC, FIG. 10D, 10E) was “acts negatively”.
